According to PubChem BioAssay (NCI):
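Growth conditions: 96-well plates. Treatment: test compound, 48 hours, 5 concentrations. Analysis: linear interpolation between bracketing concentrations; unreached endpoints set to highest concentration. TGI: concentration producing complete growth inhibition.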

Tests used:
Assay in all cases: NCI-60 cell line screen, 48 h
TK-10 renal = tested on: TK-10 renal
786-0 renal = tested on: 786-0 renal
COLO 205 colon = tested on: COLO 205 colon
SF-539 CNS = tested on: SF-539 CNS
NCI/ADR-RES ovarian = tested on: NCI/ADR-RES ovarian
CCRF-CEM leukemia = tested on: CCRF-CEM leukemia
HCT-15 colon = tested on: HCT-15 colon
ACHN renal = tested on: ACHN renal
SNB-75 CNS = tested on: SNB-75 CNS
EKVX NSCLC = tested on: EKVX NSCLC
MALME-3M melanoma = tested on: MALME-3M melanoma
SK-MEL-5 melanoma = tested on: SK-MEL-5 melanoma
HOP-92 NSCLC = tested on: HOP-92 NSCLC
U251 CNS = tested on: U251 CNS
MOLT-4 leukemia = tested on: MOLT-4 leukemia
CAKI-1 renal = tested on: CAKI-1 renal
HCC-2998 colon = tested on: HCC-2998 colon
OVCAR-5 ovarian = tested on: OVCAR-5 ovarian
OVCAR-4 ovarian = tested on: OVCAR-4 ovarian
IGROV1 ovarian = tested on: IGROV1 ovarian
SF-295 CNS = tested on: SF-295 CNS
MDA-MB-435 = tested on: MDA-MB-435
NCI-H226 lung = tested on: NCI-H226 lung
SK-MEL-2 melanoma = tested on: SK-MEL-2 melanoma
UO-31 renal = tested on: UO-31 renal
HOP-62 NSCLC = tested on: HOP-62 NSCLC
SW-620 colon = tested on: SW-620 colon
SK-MEL-28 melanoma = tested on: SK-MEL-28 melanoma
UACC-62 melanoma = tested on: UACC-62 melanoma
HL-60(TB) leukemia = tested on: HL-60(TB) leukemia
HT29 colon = tested on: HT29 colon
M14 melanoma = tested on: M14 melanoma
T-47D breast = tested on: T-47D breast
SK-OV-3 ovarian = tested on: SK-OV-3 ovarian
SNB-19 CNS = tested on: SNB-19 CNS
UACC-257 melanoma = tested on: UACC-257 melanoma
K-562 leukemia = tested on: K-562 leukemia
NCI-H522 lung = tested on: NCI-H522 lung
LOX IMVI melanoma = tested on: LOX IMVI melanoma
NCI-H23 lung = tested on: NCI-H23 lung
BT-549 breast = tested on: BT-549 breast
PC-3 prostate = tested on: PC-3 prostate
OVCAR-8 ovarian = tested on: OVCAR-8 ovarian
OVCAR-3 ovarian = tested on: OVCAR-3 ovarian
SN12C renal = tested on: SN12C renal
RPMI-8226 leukemia = tested on: RPMI-8226 leukemia
MDA-N = tested on: MDA-N
HS 578T breast = tested on: HS 578T breast
A549 NSCLC = tested on: A549 NSCLC
MDA-MB-231 breast = tested on: MDA-MB-231 breast
DU-145 prostate = tested on: DU-145 prostate
SR leukemia = tested on: SR leukemia
HCT-116 colon = tested on: HCT-116 colon
MCF7 breast = tested on: MCF7 breast
RXF 393 renal = tested on: RXF 393 renal
SF-268 CNS = tested on: SF-268 CNS
KM12 colon = tested on: KM12 colon
NCI-H460 lung = tested on: NCI-H460 lung
A498 renal = tested on: A498 renal

For `CC12CCC(C(=O)n3c1nc1ccccc13)C(C)(C)O2` (centres undefined), the TGI (TK-10 renal) was > 100 µM, the TGI (786-0 renal) was > 100 µM and the TGI (COLO 205 colon) was > 100 µM. The TGI (SF-539 CNS) was > 100 µM, the TGI (NCI/ADR-RES ovarian) was > 100 µM and the TGI (CCRF-CEM leukemia) was > 100 µM. For the same molecule, the TGI (HCT-15 colon) was > 100 µM, the TGI (ACHN renal) was > 100 µM and the TGI (SNB-75 CNS) was > 100 µM. For the same molecule, the TGI (EKVX NSCLC) was > 100 µM, the TGI (MALME-3M melanoma) was > 100 µM and the TGI (SK-MEL-5 melanoma) was > 100 µM. For the same molecule, the TGI (HOP-92 NSCLC) was > 100 µM, the TGI (U251 CNS) was > 100 µM and the TGI (MOLT-4 leukemia) was > 100 µM. The TGI (CAKI-1 renal) was > 100 µM, the TGI (HCC-2998 colon) was > 100 µM and the TGI (OVCAR-5 ovarian) was > 100 µM. For the same molecule, the TGI (OVCAR-4 ovarian) was > 100 µM, the TGI (IGROV1 ovarian) was > 100 µM and the TGI (SF-295 CNS) was > 100 µM. For the same molecule, the TGI (MDA-MB-435) was > 100 µM, the TGI (NCI-H226 lung) was > 100 µM and the TGI (SK-MEL-2 melanoma) was > 100 µM. For the same molecule, the TGI (UO-31 renal) was > 100 µM, the TGI (HOP-62 NSCLC) was > 100 µM and the TGI (SW-620 colon) was > 100 µM. For the same molecule, the TGI (SK-MEL-28 melanoma) was > 100 µM, the TGI (UACC-62 melanoma) was > 100 µM and the TGI (HL-60(TB) leukemia) was > 100 µM. For the same molecule, the TGI (HT29 colon) was > 100 µM, the TGI (M14 melanoma) was > 100 µM and the TGI (T-47D breast) was > 100 µM. The TGI (SK-OV-3 ovarian) was > 100 µM, the TGI (SNB-19 CNS) was > 100 µM and the TGI (UACC-257 melanoma) was > 100 µM. For the same molecule, the TGI (K-562 leukemia) was > 100 µM, the TGI (NCI-H522 lung) was > 100 µM and the TGI (LOX IMVI melanoma) was > 100 µM. For the same molecule, the TGI (NCI-H23 lung) was > 100 µM, the TGI (BT-549 breast) was > 100 µM and the TGI (PC-3 prostate) was > 100 µM. The TGI (OVCAR-8 ovarian) was > 100 µM, the TGI (OVCAR-3 ovarian) was > 100 µM and the TGI (SN12C renal) was > 100 µM. For the same molecule, the TGI (RPMI-8226 leukemia) was > 100 µM, the TGI (MDA-N) was > 100 µM and the TGI (HS 578T breast) was > 100 µM. The TGI (A549 NSCLC) was > 100 µM, the TGI (MDA-MB-231 breast) was > 100 µM and the TGI (DU-145 prostate) was > 100 µM. The TGI (SR leukemia) was > 100 µM, the TGI (HCT-116 colon) was > 100 µM and the TGI (MCF7 breast) was > 100 µM. For the same molecule, the TGI (RXF 393 renal) was > 100 µM, the TGI (SF-268 CNS) was > 100 µM and the TGI (KM12 colon) was > 100 µM.
`COC(=O)CNC(=O)c1cc(C)cc2c1Oc1c(cc(C)cc1C(=O)NCC(=O)OC)S2` was tested, and the TGI (TK-10 renal) was > 100 µM, the TGI (786-0 renal) was > 100 µM and the TGI (COLO 205 colon) was 70.9 µM. For the same molecule, the TGI (SF-539 CNS) was 43.7 µM, the TGI (NCI/ADR-RES ovarian) was > 100 µM and the TGI (CCRF-CEM leukemia) was > 100 µM. For the same molecule, the TGI (HCT-15 colon) was > 100 µM, the TGI (ACHN renal) was 58.4 µM and the TGI (SNB-75 CNS) was > 100 µM. For the same molecule, the TGI (EKVX NSCLC) was > 100 µM, the TGI (MALME-3M melanoma) was 40.7 µM and the TGI (HOP-92 NSCLC) was 57.2 µM. For the same molecule, the TGI (U251 CNS) was > 100 µM, the TGI (MOLT-4 leukemia) was > 100 µM and the TGI (CAKI-1 renal) was > 100 µM. The TGI (HCC-2998 colon) was > 100 µM, the TGI (OVCAR-5 ovarian) was > 100 µM and the TGI (OVCAR-4 ovarian) was > 100 µM. The TGI (IGROV1 ovarian) was > 100 µM, the TGI (SF-295 CNS) was > 100 µM and the TGI (MDA-MB-435) was > 100 µM. For the same molecule, the TGI (NCI-H226 lung) was > 100 µM, the TGI (SK-MEL-2 melanoma) was > 100 µM and the TGI (HOP-62 NSCLC) was > 100 µM. The TGI (SW-620 colon) was > 100 µM, the TGI (SK-MEL-28 melanoma) was > 100 µM and the TGI (UACC-62 melanoma) was > 100 µM. The TGI (HT29 colon) was > 100 µM, the TGI (M14 melanoma) was > 100 µM and the TGI (T-47D breast) was > 100 µM. The TGI (SK-OV-3 ovarian) was > 100 µM, the TGI (SNB-19 CNS) was > 100 µM and the TGI (UACC-257 melanoma) was > 100 µM. For the same molecule, the TGI (K-562 leukemia) was > 100 µM, the TGI (NCI-H522 lung) was > 100 µM and the TGI (LOX IMVI melanoma) was > 100 µM. For the same molecule, the TGI (NCI-H23 lung) was > 100 µM, the TGI (BT-549 breast) was > 100 µM and the TGI (PC-3 prostate) was > 100 µM. The TGI (OVCAR-8 ovarian) was > 100 µM, the TGI (OVCAR-3 ovarian) was > 100 µM and the TGI (SN12C renal) was > 100 µM. For the same molecule, the TGI (RPMI-8226 leukemia) was > 100 µM, the TGI (MDA-N) was > 100 µM and the TGI (HS 578T breast) was > 100 µM. For the same molecule, the TGI (A549 NSCLC) was > 100 µM, the TGI (MDA-MB-231 breast) was > 100 µM and the TGI (DU-145 prostate) was > 100 µM. For the same molecule, the TGI (SR leukemia) was > 100 µM, the TGI (HCT-116 colon) was > 100 µM and the TGI (MCF7 breast) was > 100 µM. The TGI (RXF 393 renal) was 69.4 µM, the TGI (SF-268 CNS) was > 100 µM and the TGI (KM12 colon) was > 100 µM.
`COC1(OC)C[C@H](C)[C@@]23O[C@]24C2=CC(=O)C=CC2=N[C@H]3C#C/C=C\C#C[C@]14O` gave a TGI (TK-10 renal) of 2.1 µM, a TGI (786-0 renal) of 0.574 µM and a TGI (COLO 205 colon) of 2.14 µM. The TGI (SF-539 CNS) was 1.93 µM, the TGI (NCI/ADR-RES ovarian) was 36.1 µM and the TGI (CCRF-CEM leukemia) was 0.811 µM. The TGI (ACHN renal) was 0.965 µM, the TGI (SNB-75 CNS) was 1.58 µM and the TGI (EKVX NSCLC) was 2.21 µM. It also gave a TGI (MALME-3M melanoma) of 2.1 µM, a TGI (SK-MEL-5 melanoma) of 1.56 µM and a TGI (HOP-92 NSCLC) of 1.8 µM. For the same molecule, the TGI (NCI-H460 lung) was 1.42 µM, the TGI (U251 CNS) was 1.82 µM and the TGI (MOLT-4 leukemia) was 0.106 µM. For the same molecule, the TGI (CAKI-1 renal) was 1.4 µM, the TGI (HCC-2998 colon) was 2.13 µM and the TGI (OVCAR-5 ovarian) was 1.8 µM. The TGI (OVCAR-4 ovarian) was 1.74 µM, the TGI (IGROV1 ovarian) was 2.37 µM and the TGI (SF-295 CNS) was 6.65 µM. For the same molecule, the TGI (MDA-MB-435) was 1.7 µM, the TGI (NCI-H226 lung) was 2.6 µM and the TGI (SK-MEL-2 melanoma) was 3.58 µM. It also gave a TGI (UO-31 renal) of 1.76 µM, a TGI (HOP-62 NSCLC) of 2.25 µM and a TGI (SW-620 colon) of 3.42 µM. The TGI (SK-MEL-28 melanoma) was 2.51 µM, the TGI (UACC-62 melanoma) was 2.93 µM and the TGI (HL-60(TB) leukemia) was 0.318 µM. It also gave a TGI (HT29 colon) of 1.25 µM, a TGI (M14 melanoma) of 1.82 µM and a TGI (A498 renal) of 2.11 µM. The TGI (T-47D breast) was 2.56 µM, the TGI (SK-OV-3 ovarian) was 2.89 µM and the TGI (SNB-19 CNS) was 3.02 µM. For the same molecule, the TGI (UACC-257 melanoma) was 5.16 µM, the TGI (NCI-H23 lung) was 2.05 µM and the TGI (BT-549 breast) was 2.2 µM. The TGI (PC-3 prostate) was 2.09 µM, the TGI (OVCAR-3 ovarian) was 1.93 µM and the TGI (RPMI-8226 leukemia) was 0.56 µM. It also gave a TGI (MDA-N) of 2.28 µM, a TGI (HS 578T breast) of 5.09 µM and a TGI (A549 NSCLC) of 1.78 µM. For the same molecule, the TGI (MDA-MB-231 breast) was 2.06 µM, the TGI (DU-145 prostate) was 2.24 µM and the TGI (SR leukemia) was 0.4 µM. For the same molecule, the TGI (HCT-116 colon) was 1.35 µM, the TGI (MCF7 breast) was 1.4 µM and the TGI (RXF 393 renal) was 2.49 µM. It also gave a TGI (SF-268 CNS) of 12.2 µM and a TGI (KM12 colon) of 1.88 µM.
